Results reported in US20100311748A1, “HETEROCYCLIC AMIDES USEFUL FOR THE TREATMENT OF CANCER AND PSORIASIS” (ASTRAZENECA AB, priority 2007, published 2010).

The compounds below were run on Hedgehog pathway (assay: Hedgehog Pathway Cellular Differentiation Assay (alkaline phosphatase production in C3H10T1/2 cells with Shh ligand)). Conditions: Mus musculus, C3H 10T1/2, 3 μM compound, Shh ligand conditioned media, 72 h, alkaline phosphatase.
Format: cell-based
Protocol: Hedgehog Pathway Cellular Differentiation Assay The ability of compounds of the invention to inhibit the Hedgehog pathway can be determined by the following cell differentiation assay. C3H10T1/2 cells were plated into 384 well plates at a concentration of 5000 cells/well in DMEM/10% FBS. The following day the media was changed to 20% conditioned media (low serum media DMEM/2% FBS+Shh ligand). Compounds were solubilized in 100% DMSO to a concentration of 10 mM and then serially diluted three fold in 100% DMSO. The highest concentration in the cell plate was 30 μM and the lowest was 3 nM. The compounds were then added to the cells. Cell plates were incubated with the compound for 72 h and then assayed for alkaline phosphatase production using pNp as a substrate. Briefly, after 72 h of incubation, the media was aspirated from the cells and washed with 30 μl of PBS. PBS was aspirated off the cells and 15 μl of 1×RIPA cell lysis buffer is added on to the cells. The cell plates are then incubated at −80° C. for 30 minutes to insure proper cell lysis. The plates were then thawed back to RT. The substrate solution containing pNp at 1 mg/mL in diethanolamine buffer pH 9.8 was then added onto the lysed cells. The plates were incubated at 30° C. for color development and read at an absorbance of 405 nm. The percent inhibition and IC50 value was then calculated from the absorbance data using standard procedures.

Question: With `Cc1ccc(-c2nccn2C)cc1NC(=O)c1ccc(OCc2cc(Cl)ccn2)cc1` [Example 91, 4-[(4-chloropyridin-2-yl)methoxy]-N-[2-methyl-5-(1-methyl-1H-imidazol-2-yl)phenyl]benzamide] as the compound, how does the inhibition at 3 µM read?
Answer: The inhibition at 3 µM was 80.4%.

Question: Which inhibition at 3 µM does the source give for `Cc1ccc(-c2cncn2C)cc1NC(=O)c1ccc(OCc2ccccc2C#N)cc1` [Example 52, 4-[(2-cyanophenyl)methoxy]-N-[2-methyl-5-(3-methylimidazol-4-yl)phenyl]benzamide] here?
Answer: The inhibition at 3 µM was 79.8%.

Question: For `COc1cccc(COc2ccc(C(=O)Nc3cc(-c4ncc[nH]4)ccc3C)cc2)c1` [Example 41, N-(5-(1H-imidazol-2-yl)-2-methylphenyl)-4-(3-methoxybenzyloxy)benzamide], which inhibition at 3 µM is on record?
Answer: Its inhibition at 3 µM is 51.9%.

Question: For `Cc1ccc(-c2ncc[nH]2)cc1NC(=O)c1ccc(COc2ccccn2)cc1` [Example 134, N-[5-(1H-imidazol-2-yl)-2-methylphenyl]-4-[(pyridin-2-yloxy)methyl]benzamide], which inhibition at 3 µM is on record?
Answer: The inhibition at 3 µM was 77.3%.

Question: For `Cc1ccc(-c2ncc(C)n2C)cc1NC(=O)c1ccc(OCc2ccccn2)cc1` [Example 20, N-[5-(1,5-dimethylimidazol-2-yl)-2-methyl-phenyl]-4-(pyridin-2-ylmethoxy)benzamide], which inhibition at 3 µM is on record?
Answer: Its inhibition at 3 µM is 58.1%.

Question: Which inhibition at 3 µM does the source give for `Cc1ccc(-c2ncc[nH]2)cc1NC(=O)c1ccc(OCc2ccc(N3CCOCC3)cn2)cc1` [Example 139, N-(5-(1H-imidazol-2-yl)-2-methylphenyl)-4-((5-morpholinopyridin-2-yl)methoxy)benzamide] here?
Answer: Its inhibition at 3 µM is 84.1%.

Question: Which inhibition at 3 µM does the source give for `Cc1ccc(-c2ncc[nH]2)cc1NC(=O)c1cccc(C#N)c1` [Example 146, 3-cyano-N-[5-(1H-imidazol-2-yl)-2-methyl-phenyl]benzamide] here?
Answer: Its inhibition at 3 µM is 17.1%.

Question: With `Cc1nnc(-c2ccc(C)c(NC(=O)c3ccc(OCc4ccccn4)cc3)c2)o1` [Example 38, N-(2-methyl-5-(5-methyl-1,3,4-oxadiazol-2-yl)phenyl)-4-(pyridin-2-ylmethoxy)benzamide] as the compound, how does the inhibition at 3 µM read?
Answer: The inhibition at 3 µM was 24.2%.

Question: For `Cc1ccc(-c2ncc(C(F)(F)F)[nH]2)cc1NC(=O)c1ccc(OCc2ccccn2)cc1` [Example 28, N-{2-methyl-5-[5-(trifluoromethyl)-1H-imidazol-2-yl]phenyl}-4-(pyridin-2-ylmethoxy)benzamide], which inhibition at 3 µM is on record?
Answer: The inhibition at 3 µM was 91.9%.

Question: `Cc1ccc(-c2ccc(N)cn2)cc1NC(=O)c1ccc(OCc2ccccn2)cc1` [Example 6, N-[5-(5-aminopyridin-2-yl)-2-methyl-phenyl]-4-(pyridin-2-ylmethoxy)benzamide] was tested. Which inhibition at 3 µM did it give?
Answer: The inhibition at 3 µM was 65.7%.

Question: `Cc1ccc(-c2cnn(C)c2)cc1NC(=O)c1ccc(OCc2ccccn2)cc1` [Example 33, N-[2-methyl-5-(1-methylpyrazol-4-yl)phenyl]-4-(pyridin-2-ylmethoxy)benzamide] was tested. Which inhibition at 3 µM did it give?
Answer: Its inhibition at 3 µM is 54.7%.

Question: `Cc1ccc(-c2ncc[nH]2)cc1NC(=O)c1ccc(OCc2ccccn2)cc1` [Example 29, N-[5-(1H-imidazol-2-yl)-2-methyl-phenyl]-4-(pyridin-2-ylmethoxy)benzamide] was tested. Which inhibition at 3 µM did it give?
Answer: Its inhibition at 3 µM is 75.3%.

Question: For `Cc1ccc(-c2ncc[nH]2)cc1NC(=O)c1ccc(OCc2ccccc2C#N)cc1` [Example 46, 4-[(2-cyanophenyl)methoxy]-N-[5-(1H-imidazol-2-yl)-2-methyl-phenyl]benzamide], which inhibition at 3 µM is on record?
Answer: Its inhibition at 3 µM is 81.9%.

Question: How did the inhibition at 3 µM turn out when `Cc1cc(Cl)c(-c2nccn2C)cc1NC(=O)c1ccc(OCc2ccccn2)cc1` [Example 74, N-[4-chloro-2-methyl-5-(1-methyl-1H-imidazol-2-yl)phenyl]-4-(pyridin-2-ylmethoxy)benzamide] was run?
Answer: Its inhibition at 3 µM is 76.2%.

Question: Which inhibition at 3 µM does the source give for `COc1cc(COc2ccc(C(=O)Nc3cc(-c4ncc(C)n4C)ccc3C)cc2)cc(OC)c1` [Example 48, 4-[(3,5-dimethoxyphenyl)methoxy]-N-[5-(1,5-dimethylimidazol-2-yl)-2-methyl-phenyl]benzamide] here?
Answer: Its inhibition at 3 µM is 81.5%.

Question: For `Cc1ccc(-c2ncc[nH]2)cc1NC(=O)c1ccc(/C=C/c2ccccn2)cc1` [Example 109, N-[5-(1H-imidazol-2-yl)-2-methylphenyl]-4-[(E)-2-pyridin-2-ylethenyl]benzamide], which inhibition at 3 µM is on record?
Answer: Its inhibition at 3 µM is 91.3%.

Question: With `Cc1ccc(-c2ncc[nH]2)cc1NC(=O)c1ccc(OCc2cc(OCCN(C)C)ccn2)cc1` [Example 94, 4-({4-[2-(dimethylamino)ethoxy]pyridin-2-yl}methoxy)-N-[5-(1H-imidazol-2-yl)-2-methylphenyl]benzamide] as the compound, how does the inhibition at 3 µM read?
Answer: The inhibition at 3 µM was 56.7%.

Question: For `Cc1cnc(-c2ccc(C)c(NC(=O)c3ccc(OCc4ccccn4)cc3)c2)[nH]1` [Example 25, N-[2-methyl-5-(5-methyl-1H-imidazol-2-yl)phenyl]-4-(pyridin-2-ylmethoxy)benzamide], which inhibition at 3 µM is on record?
Answer: Its inhibition at 3 µM is 79.5%.

Question: For `Cc1ccc(-c2c[nH]nn2)cc1NC(=O)c1ccc(OCc2ccccn2)cc1` [Example 114, N-(2-methyl-5-(1H-1,2,3-triazol-4-yl)phenyl)-4-(pyridin-2-ylmethoxy)benzamide], which inhibition at 3 µM is on record?
Answer: The inhibition at 3 µM was 73.2%.

Question: How did the inhibition at 3 µM turn out when `Cc1ccc(-c2[nH]cnc2C)cc1NC(=O)c1ccc(OCc2ccccn2)cc1` [Example 27, N-[2-methyl-5-(4-methyl-1H-imidazol-5-yl)phenyl]-4-(pyridin-2-ylmethoxy)benzamide] was run?
Answer: The inhibition at 3 µM was 76.6%.

Question: Which inhibition at 3 µM does the source give for `Cc1ccc(-c2ncc[nH]2)cc1NC(=O)c1ccc(OCc2cccc(OCCN(C)C)n2)cc1` [Example 124, N-(5-(1H-imidazol-2-yl)-2-methylphenyl)-4-((6-(2-(dimethylamino)ethoxy)pyridin-2-yl)methoxy)benzamide] here?
Answer: The inhibition at 3 µM was 46.8%.

Question: How did the inhibition at 3 µM turn out when `Cc1cc(C)c(-c2ncc[nH]2)cc1NC(=O)c1ccc(OCc2ccccn2)cc1` [Example 67, N-[5-(1H-imidazol-2-yl)-2,4-dimethylphenyl]-4-(pyridin-2-ylmethoxy)benzamide] was run?
Answer: Its inhibition at 3 µM is 77.1%.

Question: `COc1ccc(COc2ccc(C(=O)Nc3cc(-c4ncc[nH]4)ccc3C)cc2)nc1` [Example 130, N-(5-(1H-imidazol-2-yl)-2-methylphenyl)-4-((5-methoxypyridin-2-yl)methoxy)benzamide] was tested. Which inhibition at 3 µM did it give?
Answer: Its inhibition at 3 µM is 91.9%.

Question: `Cc1cc(C)c(-c2cnc(C)n2C)cc1NC(=O)c1ccc(OCc2ccccn2)cc1` [Example 70, N-[5-(1,2-dimethyl-1H-imidazol-5-yl)-2,4-dimethylphenyl]-4-(pyridin-2-ylmethoxy)benzamide] was tested. Which inhibition at 3 µM did it give?
Answer: Its inhibition at 3 µM is 78.1%.

Question: `COc1cccnc1COc1ccc(C(=O)Nc2cc(-c3ncc[nH]3)ccc2C)cc1` [Example 135, N-(5-(1H-imidazol-2-yl)-2-methylphenyl)-4-((3-methoxypyridin-2-yl)methoxy)benzamide] was tested. Which inhibition at 3 µM did it give?
Answer: The inhibition at 3 µM was 76.9%.

Question: `Cc1ccc(-c2nccn2C)cc1NC(=O)c1ccc(OCc2ccc(F)cc2C#N)cc1` [Example 100, 4-[(2-cyano-4-fluorobenzyl)oxy]-N-[2-methyl-5-(1-methyl-1H-imidazol-2-yl)phenyl]benzamide] was tested. Which inhibition at 3 µM did it give?
Answer: The inhibition at 3 µM was 82.7%.

Question: `Cc1ccc(-c2nc(CO)c[nH]2)cc1NC(=O)c1ccc(OCc2ccccn2)cc1` [Example 88, N-{5-[4-(hydroxymethyl)-1H-imidazol-2-yl]-2-methylphenyl}-4-(pyridin-2-ylmethoxy)benzamide] was tested. Which inhibition at 3 µM did it give?
Answer: Its inhibition at 3 µM is 84.7%.

Question: For `Cc1ccc(-c2ncc[nH]2)cc1NC(=O)c1ccc(OCc2ccc(F)cc2)cc1` [Example 59, 4-[(4-Fluorophenyl)methoxy]-N-[5-(1H-imidazol-2-yl)-2-methylphenyl]benzamide], which inhibition at 3 µM is on record?
Answer: Its inhibition at 3 µM is 82.5%.

Question: With `Cc1ccc(-c2ncc[nH]2)cc1NC(=O)c1ccc(OCc2ncccc2Br)cc1` [Example 120, 4-[(3-bromopyridin-2-yl)methoxy]-N-[5-(1H-imidazol-2-yl)-2-methylphenyl]benzamide] as the compound, how does the inhibition at 3 µM read?
Answer: The inhibition at 3 µM was 78.3%.

Question: How did the inhibition at 3 µM turn out when `Cc1ccc(-c2ncc[nH]2)cc1NC(=O)c1cccc(N(C)C)c1` [Example 148, 3-dimethylamino-N-[5-(1H-imidazol-2-yl)-2-methyl-phenyl]benzamide] was run?
Answer: Its inhibition at 3 µM is 9.1%.

Question: Which inhibition at 3 µM does the source give for `Cc1c[nH]c(-c2ccc(C)c(NC(=O)c3ccc(OCc4ccccc4C#N)cc3)c2)n1` [Example 44, 4-[(2-cyanophenyl)methoxy]-N-[2-methyl-5-(4-methyl-1H-imidazol-2-yl)phenyl]benzamide] here?
Answer: The inhibition at 3 µM was 80.7%.

Question: With `Cc1cn(C)c(-c2ccc(C)c(NC(=O)c3ccc(OCc4cccc(OCCN5CCOCC5)c4)cc3)c2)n1` [Example 66, N-[5-(1,4-dimethyl-1H-imidazol-2-yl)-2-methylphenyl]-4-{[3-(2-morpholin-4-ylethoxy)benzyl]oxy}benzamide] as the compound, how does the inhibition at 3 µM read?
Answer: The inhibition at 3 µM was 69.6%.

Question: For `Cc1ccc(-c2c[nH]cn2)cc1NC(=O)c1ccc(OCc2ccccn2)cc1` [Example 1, N-[5-(1H-imidazol-4-yl)-2-methyl-phenyl]-4-(pyridin-2-ylmethoxy)benzamide], which inhibition at 3 µM is on record?
Answer: The inhibition at 3 µM was 64.9%.

Question: For `Cc1ccc(-c2ccncc2)cc1NC(=O)c1ccc(OCc2ccccn2)cc1` [Example 11, N-(2-methyl-5-pyridin-4-yl-phenyl)-4-(pyridin-2-ylmethoxy)benzamide], which inhibition at 3 µM is on record?
Answer: The inhibition at 3 µM was 75%.

Question: For `COc1ccnc(COc2ccc(C(=O)Nc3cc(-c4nccn4C)ccc3C)cc2)c1` [Example 93, 4-[(4-methoxypyridin-2-yl)methoxy]-N-[2-methyl-5-(1-methyl-1H-imidazol-2-yl)phenyl]benzamide], which inhibition at 3 µM is on record?
Answer: Its inhibition at 3 µM is 79.9%.

Question: Which inhibition at 3 µM does the source give for `Cc1ccc(-c2ncc[nH]2)cc1NC(=O)c1ccc(OCc2cc(N(C)C)ccn2)cc1` [Example 127, 4-{[4-(dimethylamino)pyridin-2-yl]methoxy}-N-[5-(1H-imidazol-2-yl)-2-methylphenyl]benzamide] here?
Answer: Its inhibition at 3 µM is 76.3%.

Same assay, conditions: Mus musculus, C3H 10T1/2, Shh ligand conditioned media, 72 h, alkaline phosphatase (pNp, 405 nm)

Question: How did the IC50 turn out when `Cc1ccc(-c2ncc(C)n2C)cc1NC(=O)c1ccc(OCc2ccccn2)cc1` [Example 20, N-[5-(1,5-dimethylimidazol-2-yl)-2-methyl-phenyl]-4-(pyridin-2-ylmethoxy)benzamide] was run?
Answer: The IC50 was under 3 nM.
